# US8937068B2, “Pyridopyrazine derivatives and their use” (Zentaris GmbH, priority 2005, dated 2015)
# Experiments:
# MDA-MB468 = assay: XTT assay, anti-proliferative effect, MDA-MB468; assay type: cell-based; settings: Homo sapiens, MDA-MB-468; 45 h incubation
# Experimental: (§1) The principle of this test is based on the intracellular reduction of the tetrazolium dye XTT (sodium 3′-[1-(phenylaminocarbonyl)-3,4-tetrazolium]-bis(4-methoxy-6-nitro)benzene sulfonic acid, Sigma) to a formazan dye by mitochondrial dehydrogenases. The dye is only formed by metabolically active cells and its photometrically measurable intensity is a quantitative indicator for the presence of living cells. The reduction of dye formation by incubation of the cells with substances serves as a parameter for the anti-proliferative effect.
# (§2) The tumour cell lines (ATCC) were injected into 96-well microtitre plates in a defined cell number (5000 cells/well for BxPC3 and Hct116; 10000 cells/well for MDA MB468) and then incubated overnight in an incubator at 37° C., 5% CO2 and 95% air humidity. The test substances were prepared as stock solutions (10 mM) in DMSO. […] The cell plates were then incubated for 45 h in an incubator at 37° C., 5% CO2 and 95% air humidity.
# (§3) For the detection reaction the substrate XTT was mixed with PMS (N-Methyl dibenzopyrazine methylsulfate, Sigma) and added to the cells so that a final concentration of 325 μg XTT/ml and 2.5 μg PMS/ml was obtained. It was then incubated for 3 h at 37° C., 95% air humidity. The formazan salt formed by the cellular dehydrogenases could then be quantified by adsorption at 490 nm.
# (§4) The % inhibition value was evaluated by means of the following formula from the values for the optical densities measured in each case at 490 nm:
# (§5) Eight determinations were made for each control and two for the substance samples. The 0% control contains no cells, the 100% control (proliferation control) contains no test substance. The EC50 values were determined using GraphPadPrism.
# Hct116 = assay: XTT assay, anti-proliferative effect, Hct116; assay type: cell-based; settings: Homo sapiens, HCT-116; 45 h incubation
# Experimental: as §1, §2, §3, §4, §5
# BxPC3 = assay: XTT assay, anti-proliferative effect, BxPC3; assay type: cell-based; settings: Homo sapiens, BXPC-3; 45 h incubation
# Experimental: as §1, §2, §3, §4, §5
# PI3K → pAkt = assay: Cellular substrate phosphorylation (Western Blotting), PI3K substrate pAkt; assay type: cell-based; settings: for inhibition at 50 µM: 5 h; for PI3K inhibition / inhibition of the PI3K substrate p-Akt (in words): Western Blotting
# Experimental: (§6) This method can be used to predict whether the kinase modulator under study also achieves the desired effect in a cellular context, i.e. in this case, a substrate protein downstream of the target kinase is investigated for its phosphorylation status. For this purpose, the cells incubated with substance are lysed and the total protein separated on a reducing polyacrylamide gel. The proteins are then transferred to a PVDF membrane by means of Western Blotting and the substrate bands sought are made visible with specific antibodies and a suitable detection method. The substrate proteins downstream of the target kinases are detected simultaneously with a respectively special anti-phospho-antibody and at the same time a total antibody which recognizes the substrate total protein. This simultaneous measurement can be made using the duplex technology of the ODYSSEY imagers (LiCOR). The intensity of the total substrate bands is used for normalising or quantifying the phosphorylation inhibition or activation.
# (§7) Suitable tumour cell lines (e.g. BxPC3, Hct116 or MDA MB468) were injected into six-well microtitre plates in a defined cell number (e.g. 350 000 cells/well for BxPC3 and Hct116) in the respective standard complete medium and then incubated overnight at 37° C., 5% CO2 and 95% air humidity. The cells were then incubated for a further 24 h under serum-reduced conditions i.e. in the respective medium but with only 0.25% serum. The test substances were prepared as stock solutions (10 mM) in DMSO and incubated with the cells in final concentrations of 5, 15.8 and 50 μM for 5 h. This was followed by cell lysis in 25 mM Tris, 150 mM NaCl, 10 mM Na-pyrophosphate, 2 mM EGTA, 25 mM β-glycerophosphate, 25 mM NaF, 10% glycerine, 0.75% NP-40, 100 μM NaVO4 buffer. Following protein quantification by means of BCA (bicinchonic acid protein assay kit, Sigma) Assay, protein quantities of about 20 μg per track were separated on a Lämmli polyacrylamide gel and then transferred to a PVDF membrane (Millipore) by means of Semi-Dry Western-Blotting at 0.8 mA/cm^2 for 1 h. This was followed by pre-hybridisation of the membrane for 1 hour in I-block reagent (Applied Biosystems) and incubation overnight with the specific antibodies. To determine the Erk and PI3K inhibition, the respectively downstream substrates Rsk1 were detected with the total antibody (Rsk #sc-231g C-21, Santa Cruz) and the phospho-antibody (Phospho-p90RSK (S380) #9341, NEB Cell Signalling) and Akt was detected with the total antibody (Akt1 #sc-1618 C-20, Santa Cruz) and the phospho-antibody (Phospho-Akt (Ser 473) #9271, NEB Cell Signaling). After washing the membrane, secondary antibody incubation was carried out with anti-rabbit IR Dye 800 (#611-732-127, Rockland) for the phospho-antibody and anti-goat Alexa Fluor 680 (#A-21081, Molecular Probes) for the total protein-antibody. After incubating for 30 min at room temperature in the dark, the hybridisation of the detection antibody on the membrane was detected by scanning in the ODYSSEY imager (LiCOR).
# (§8) The reduction of the fluorescence intensity of the phospho-substrate bands (pRsk and pAkt) is given in the table below as % inhibition and relates to the following formula:
# (§9) The band intensity (fluorescence intensity) of the respective non-inhibited (without substance) phospho-substrates was used as 100% control.
# [1] = test system: tumour cell lines (BxPC3, Hct116, MDA MB468); assay: XTT assay, anti-proliferative effect on the cell lines used; assay type: cell-based; settings: compared to the Exemplary Embodiments
# Experimental: as §1
# The tumour cell lines (ATCC) were injected into 96-well microtitre plates in a defined cell number (5000 cells/well for BxPC3 and Hct116; 10000 cells/well for MDA MB468) and then incubated overnight in an incubator at 37° C., 5% CO2 and 95% air humidity. […]
# as §3, with “It was then incubated for 3 h at 37° C., 95% air humidity.” left out
# as §4
# Eight determinations were made for each control and two for the substance samples. […] The EC50 values were determined using GraphPadPrism.
# Erk → pRsk = assay: Cellular substrate phosphorylation (Western Blotting), Erk substrate pRsk; assay type: cell-based; settings: for inhibition at 50 µM: 5 h; for Erk inhibition / inhibition of the Erk substrate p-Rsk (in words): Western Blotting
# Experimental: as §6, §7, §8, §9
# Erk2 = Erk2 (Homo sapiens, UniProt P28482); assay: Cell-free kinase assay (ALPHA technology), Erk2; assay type: biochemical; settings: 10 μM ATP
# In short: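 Recombinant tagged Erk2 kinase reactions were stopped with ALPHA bead mix […]. The signal was read after standing overnight. Controls were run in eight replicates and compounds in duplicate, and IC50 was fitted.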
# PI3Kalpha = PI3Kalpha (Homo sapiens (Human), UniProt P42336); assay: Cell-free kinase assay (ALPHA technology), PI3Kalpha; assay type: biochemical; settings: 100 μM ATP
# In short: (§10)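 Recombinant human GST- or His-tagged kinases were assayed for 1 h with ALPHA bead detection read after overnight standing. For PI3Kalpha: 1 ng enzyme, 100 μM ATP, 20 μM PIP2 in Hepes pH 7.4, detected by GST:Grp1/biotin-PIP3 competition. The p38alpha and Jnk assays followed the MAPK format (10 μM ATP, biotin-MBP, anti-phospho-MBP); IC50 from %-inhibition.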
# p38alpha = p38alpha (Homo sapiens (Human), UniProt Q16539); assay: Cell-free kinase assay (ALPHA technology), p38alpha; assay type: biochemical; settings: 10 μM ATP
# Jnk1 + Jnk2 = assay: Cell-free kinase assay (ALPHA technology), Jnk1 + Jnk2; assay type: biochemical, human; settings: 10 μM ATP
# In short: as §10
# Sequence of PI3Kalpha (P42336 whole entry): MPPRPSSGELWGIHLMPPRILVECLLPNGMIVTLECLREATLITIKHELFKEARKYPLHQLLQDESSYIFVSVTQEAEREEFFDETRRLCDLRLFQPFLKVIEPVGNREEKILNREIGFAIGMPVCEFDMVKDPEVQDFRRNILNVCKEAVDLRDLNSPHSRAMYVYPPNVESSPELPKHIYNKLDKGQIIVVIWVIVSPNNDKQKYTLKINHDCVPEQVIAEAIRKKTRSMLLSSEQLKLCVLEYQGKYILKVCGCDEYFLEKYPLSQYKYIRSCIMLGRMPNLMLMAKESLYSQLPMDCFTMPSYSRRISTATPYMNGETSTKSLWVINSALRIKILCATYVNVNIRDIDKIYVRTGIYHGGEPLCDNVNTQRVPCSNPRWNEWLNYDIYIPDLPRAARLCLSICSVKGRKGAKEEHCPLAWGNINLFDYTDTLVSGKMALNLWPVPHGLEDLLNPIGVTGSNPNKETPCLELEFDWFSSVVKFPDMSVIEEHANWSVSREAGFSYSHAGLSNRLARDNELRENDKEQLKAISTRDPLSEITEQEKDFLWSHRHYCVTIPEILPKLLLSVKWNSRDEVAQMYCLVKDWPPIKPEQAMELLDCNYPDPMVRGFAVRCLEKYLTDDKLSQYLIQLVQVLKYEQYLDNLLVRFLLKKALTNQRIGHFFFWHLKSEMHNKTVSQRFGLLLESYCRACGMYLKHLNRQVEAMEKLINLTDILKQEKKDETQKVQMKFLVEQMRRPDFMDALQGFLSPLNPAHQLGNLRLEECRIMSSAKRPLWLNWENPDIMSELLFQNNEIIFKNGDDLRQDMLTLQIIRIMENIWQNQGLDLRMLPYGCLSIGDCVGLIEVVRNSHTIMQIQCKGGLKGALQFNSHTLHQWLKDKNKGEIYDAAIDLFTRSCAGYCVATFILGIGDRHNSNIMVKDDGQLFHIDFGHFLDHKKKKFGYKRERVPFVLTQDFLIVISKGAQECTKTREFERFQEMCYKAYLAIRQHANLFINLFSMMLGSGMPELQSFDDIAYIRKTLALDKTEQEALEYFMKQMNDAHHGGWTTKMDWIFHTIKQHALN
# Sequence of PI3Kalpha (P27986 whole entry partner): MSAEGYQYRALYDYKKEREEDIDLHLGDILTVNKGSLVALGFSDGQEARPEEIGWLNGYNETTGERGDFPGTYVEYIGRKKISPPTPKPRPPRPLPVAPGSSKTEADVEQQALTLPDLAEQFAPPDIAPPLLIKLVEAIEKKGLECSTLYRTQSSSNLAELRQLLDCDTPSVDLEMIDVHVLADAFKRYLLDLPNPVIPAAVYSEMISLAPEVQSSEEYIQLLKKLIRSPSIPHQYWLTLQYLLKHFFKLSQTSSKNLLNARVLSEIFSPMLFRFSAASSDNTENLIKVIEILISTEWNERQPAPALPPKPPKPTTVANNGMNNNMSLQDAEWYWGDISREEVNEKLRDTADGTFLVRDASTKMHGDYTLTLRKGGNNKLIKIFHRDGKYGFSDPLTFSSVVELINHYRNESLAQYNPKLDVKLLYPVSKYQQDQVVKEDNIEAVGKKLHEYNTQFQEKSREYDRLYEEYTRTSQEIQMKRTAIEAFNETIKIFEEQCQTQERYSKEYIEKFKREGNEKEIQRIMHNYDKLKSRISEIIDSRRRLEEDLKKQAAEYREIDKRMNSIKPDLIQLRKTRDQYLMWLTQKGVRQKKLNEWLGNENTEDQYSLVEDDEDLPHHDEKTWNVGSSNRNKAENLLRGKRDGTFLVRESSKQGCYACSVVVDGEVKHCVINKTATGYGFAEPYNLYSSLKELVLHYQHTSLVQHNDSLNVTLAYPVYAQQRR
# Sequence of Erk2 (P28482 2-360 limits assumed): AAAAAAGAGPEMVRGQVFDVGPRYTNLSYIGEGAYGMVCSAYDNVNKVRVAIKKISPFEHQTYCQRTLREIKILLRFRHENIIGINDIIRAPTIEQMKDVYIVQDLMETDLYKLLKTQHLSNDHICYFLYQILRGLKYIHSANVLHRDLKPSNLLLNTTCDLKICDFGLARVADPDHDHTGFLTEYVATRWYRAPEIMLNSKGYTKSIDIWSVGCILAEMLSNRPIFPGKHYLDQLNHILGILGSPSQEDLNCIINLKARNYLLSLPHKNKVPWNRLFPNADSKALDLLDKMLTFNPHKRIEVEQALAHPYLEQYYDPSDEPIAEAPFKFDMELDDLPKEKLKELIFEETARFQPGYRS
# Sequence of p38alpha (Q16539 whole entry): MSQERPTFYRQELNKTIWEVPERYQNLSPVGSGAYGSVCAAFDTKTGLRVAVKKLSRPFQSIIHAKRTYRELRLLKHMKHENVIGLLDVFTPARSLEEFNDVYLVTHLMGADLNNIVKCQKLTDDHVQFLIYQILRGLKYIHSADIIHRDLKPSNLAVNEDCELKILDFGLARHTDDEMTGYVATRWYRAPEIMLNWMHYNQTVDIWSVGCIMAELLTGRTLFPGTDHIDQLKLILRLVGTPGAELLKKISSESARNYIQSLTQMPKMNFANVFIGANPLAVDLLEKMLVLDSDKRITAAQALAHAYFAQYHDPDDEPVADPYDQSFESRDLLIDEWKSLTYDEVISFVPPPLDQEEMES
EC50 (MDA-MB468),EC50 (Hct116),EC50 (BxPC3),IC50 (Erk2),IC50 (PI3Kalpha),IC50 (p38alpha),IC50 (Jnk1 + Jnk2),Compound,inhibition at 50 µM (PI3K → pAkt),PI3K inhibition / inhibition of the PI3K substrate p-Akt (in words) (PI3K → pAkt),anti-proliferative effects on the cell lines used (in words) [1],inhibition at 50 µM (Erk → pRsk),Erk inhibition / inhibition of the Erk substrate p-Rsk (in words) (Erk → pRsk)
20 µM,17 µM,25 µM,,,,,"O=c1cc(N2CCOCC2)oc2c(-c3ccccc3)cccc12 [Ly294002, reference compound]",40%,only weak PI3K inhibition,weak anti-proliferative effects,0%,no Erk inhibition
5.2 µM,> 25 µM,> 50 µM,19.6 µM,0.444 µM,> 100 µM,24.3 µM,"CCNC(=O)Nc1ccc2ncc(Nc3ccc(O)cc3)nc2n1 [Compound 164, 1-Ethyl-3-[3-(4-hydroxy-phenylamino)-pyrido[2,3-b]pyrazin-6-yl]-urea]",,,,,
24 µM,6 µM,> 25 µM,0.939 µM,0.612 µM,> 100 µM,6.7 µM,"CCNC(=O)Nc1ccc2ncc(-c3ccc(OC)c(OC)c3)nc2n1 [Compound 153, 1-[3-(3,4-Dimethoxy-phenyl)-pyrido[2,3-b]pyrazin-6-yl]-3-ethyl-urea]",,,,,
3.5 µM,4.4 µM,> 25 µM,> 100 µM,0.348 µM,> 100 µM,28.5 µM,"CCNC(=O)Nc1ccc2ncc(Nc3cccc(C)c3)nc2n1 [Compound 157, 1-Ethyl-3-(3-m-tolylamino-pyrido-[2,3-b]pyrazin-6-yl)-urea]",,,,,
,,,,,,,"COC[C@H]1OC(=O)c2coc3c2[C@@]1(C)C1=C(C3=O)[C@@H]2CCC(=O)[C@@]2(C)C[C@H]1OC(C)=O [Wortmannin, reference compound]",100%,complete inhibition of the PI3K substrate pAkt,,0%,no Erk or p-RSK inhibition
15 µM,1.4 µM,8.9 µM,0.138 µM,0.425 µM,> 100 µM,2.1 µM,"CCNC(=O)Nc1ccc2ncc(-c3cc(Cl)c(O)c(OC)c3)nc2n1 [Compound 156, 1-[3-(3-Chloro-4-hydroxy-5-methoxy-phenyl)-pyrido[2,3-b]pyrazin-6-yl]-3-ethyl-urea]",,,,,
